Tests used:
[1] = test system: paddy rice variety "Nipponbare"; assay: Alkaline soil cultivation test; format: in vivo; details: fossil shellfish soil pH9; 30 μmol administered only once; SPAD 7 days after the administration; FIG. 4
Procedure: The paddy rice variety “Nipponbare” was seeded in tap water. When roots and buds emerged, seedlings were soaked in a hydroponic solution (formulation in the Horticultural Experiment Station). When the plant height reached about 7 cm, the seedlings were transplanted into fossil shellfish soil having a pH9. Aqueous solutions containing 30 μmol of each of Fe-PDMA, only PDMA, a complex composed of the lactam compound (L2) and iron sulfate (III) (hereinafter, referred to as “Fe(III)-lactam compound (L2)”), a complex composed of the lactam compound (L2) and iron sulfate (II) (hereinafter, referred to as “Fe(II)-lactam compound (L2)”), lactam compound (L2), disodium ethylenediamine tetraacetate, Fe-EDTA, Fe-EDDHA, iron sulfate (III) or iron sulfate (II). were administered only once to each of the soil to measure SPAD values 7 days after the administration. According to FIG. 4, SPAD values were 33.8 and 30.9, respectively when either the Fe-lactam compound (L2) of divalent and trivalent iron was used.

[2] = Stability of aqueous solution (1H-NMR in waters with different pH); format: physicochemical; details: aqueous solutions of pH 1 (hydrochloric acid), pH 7 (water), pH 9 (sodium hydrogen carbonate), FIG. 1
Procedure: In order to investigate the stability of the lactam compound (L2) in water having different pH, an aqueous solution having a pH of 1 using hydrochloric acid, an aqueous solution having a pH of 7 in which the lactam compound (L2) was dissolved in water, and an aqueous solution having a pH of 9 using sodium hydrogen carbonate were subjected to ^1H-NMR measurement.

Compound: O=C(O)[C@@H]1CCCN1CC[C@@H](C(=O)O)N1CC[C@H](O)C1=O [lactam compound (L2)]
- growth effect in alkaline soil [1]: the effect can be obtained
- stability of the lactam ring in water [2]: the lactam ring structure is maintained

From patent US12382957B2, “Lactam compound or salt thereof, complex, and fertilizer and plant growth regulator containing said compound or salt and complex” (AICHI STEEL CORPORATION, priority 2020, dated 2025)
